Experimental data reported in PubChem BioAssay (NCI).
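96-well plates; 48 h exposure; 5 concentrations. Endpoints by linear interpolation between flanking doses. Not reached: highest tested concentration assigned. The concentration for 50% growth inhibition is given as GI50. TGI marks complete inhibition of growth.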

Experiments:
Experiment in all cases: DTP human tumour cell line panel, 48 h
OVCAR-8 ovarian = system: OVCAR-8 ovarian
OVCAR-4 ovarian = system: OVCAR-4 ovarian
HL-60(TB) leukemia = system: HL-60(TB) leukemia
SK-MEL-28 melanoma = system: SK-MEL-28 melanoma
SNB-19 CNS = system: SNB-19 CNS
NCI-H23 lung = system: NCI-H23 lung
NCI-H522 lung = system: NCI-H522 lung
NCI-H226 lung = system: NCI-H226 lung
OVCAR-5 ovarian = system: OVCAR-5 ovarian
MCF7 breast = system: MCF7 breast

| Compound | TGI (OVCAR-8 ovarian) [µM] | TGI (OVCAR-4 ovarian) [µM] | TGI (HL-60(TB) leukemia) [µM] | TGI (SK-MEL-28 melanoma) [µM] | TGI (SNB-19 CNS) [µM] | TGI (NCI-H23 lung) [µM] | TGI (NCI-H522 lung) [µM] | TGI (NCI-H226 lung) [µM] | GI50 (OVCAR-8 ovarian) [µM] | GI50 (OVCAR-5 ovarian) [µM] | TGI (OVCAR-5 ovarian) [µM] | GI50 (OVCAR-4 ovarian) [µM] | GI50 (MCF7 breast) [µM] | TGI (MCF7 breast) [µM] | GI50 (SK-MEL-28 melanoma) [µM] | GI50 (SNB-19 CNS) [µM] | GI50 (NCI-H23 lung) [µM] | GI50 (NCI-H522 lung) [µM] | GI50 (NCI-H226 lung) [µM] | GI50 (HL-60(TB) leukemia) [µM] |
| --- | --- | --- | --- | --- | --- | --- | --- | --- | --- | --- | --- | --- | --- | --- | --- | --- | --- | --- | --- | --- |
| COc1ccc2nc(NC(=O)C(=O)CC(=O)c3ccc(Cl)cc3)sc2c1 | > 100 | 53.2 | > 100 | > 100 | > 100 | > 100 | > 100 | > 100 | – | – | – | – | – | – | – | – | – | – | – | – |
| O=C(CNC(=O)c1cccc2ccccc12)Nc1ccccc1Oc1ccccc1 | > 10 | > 10 | – | > 10 | > 10 | > 10 | 0.612 | > 10 | 0.315 | 0.521 | > 10 | 4.54 | 0.306 | > 10 | 0.813 | 0.461 | 0.658 | 0.151 | 2.19 | – |
| NC(=NC1CCCCCC1)c1ccc(N2CCN(c3ccc(C(N)=NC4CCCCCC4)cc3)CC2)cc1 | > 50 | > 50 | > 50 | 22.4 | 27.1 | 18.5 | 23.9 | 28.9 | 9 | 25.4 | > 50 | 26.6 | – | – | 10.7 | 10.1 | 4.77 | 5.42 | 7.64 | 14.1 |
| COc1cc(-c2cn(-c3ccc(Cl)cc3)c(=O)[nH]2)cc(OC)c1OC | > 100 | > 100 | – | > 100 | > 100 | > 100 | > 100 | > 100 | > 100 | > 100 | > 100 | > 100 | > 100 | > 100 | > 100 | > 100 | > 100 | > 100 | > 100 | – |
| Cc1c(C(=O)CC(=O)C(=O)Nc2cccc(C(F)(F)F)c2)[n+](=O)c2ccccc2n1[O-] | 6.34 | 13.3 | 7.65 | 27.2 | 19.9 | 40.5 | 5.5 | 80.8 | – | – | 19.5 | – | – | – | – | – | – | – | – | – |
| CN(C)c1ccc(/C=C2\N=C(c3ccc(N)cc3)OC2=O)cc1 | > 100 | > 100 | > 100 | > 100 | > 100 | > 100 | > 100 | > 100 | – | – | > 100 | – | – | – | – | – | – | – | – | – |
| Cc1cc(N/N=C/c2nc(-c3ccccc3)oc2C)c2cc(Cl)ccc2n1 | 4.4 | 3.53 | – | 3.16 | 4.86 | 3.61 | – | 6.88 | 2.04 | 1.62 | 3.12 | 1.85 | 1.64 | 3.56 | 1.71 | 2.12 | 1.7 | – | 2.38 | – |
| Cc1nn2c(/C=C3/C(=O)Nc4ccccc43)c(-c3ccc(Cl)cc3)nc2s1 | > 50 | – | – | – | 32.6 | – | > 50 | 27.5 | 31.9 | – | – | – | 17.1 | > 50 | – | 10.5 | – | 46 | 10.1 | – |
| CC(C)(C)C(=O)C(c1ccc(-c2cscn2)cc1)c1ccc(-c2cscn2)cc1 | > 100 | 9.54 | > 100 | > 100 | > 69.7 | > 100 | > 100 | > 78.7 | – | – | > 100 | – | – | – | – | – | – | – | – | – |
| O=C(c1ccc(NCN2C(=O)CCC2=O)cc1)c1ccc(NCN2C(=O)CCC2=O)cc1 | > 100 | > 100 | 49.5 | > 100 | > 100 | > 100 | > 100 | – | – | – | > 100 | – | – | – | – | – | – | – | – | – |
| O=C(N/N=C/c1cc(Br)cc(Br)c1[O-])c1ccccc1O.O=C(N/N=C/c1cc(Br)cc(Br)c1[O-])c1ccccc1O.[Mn+2] | 14.3 | 17.5 | 2.81 | 13.8 | 36 | – | – | 11 | – | – | 16.4 | – | – | – | – | – | – | – | – | – |
| O[C@]12CCCC[C@H]1CCC2 | > 100 | > 100 | > 100 | > 100 | > 100 | > 100 | > 100 | – | – | – | > 100 | – | – | – | – | – | – | – | – | – |
| Clc1cc(Cl)cc(N2N=C(c3cccc(Nc4ccncc4)c3)CC2c2ccc(Br)cc2)c1 (stereo not given) | 4.87 | 2.96 | 6.08 | 3.37 | 3.16 | 3.41 | 3.88 | – | 2.16 | 1.55 | 2.92 | 1.6 | – | – | 1.83 | 1.63 | 1.79 | 1.88 | – | 2.44 |
| CC(=O)O[C@@H]1CC(C)C2CC2C2=C(C(O)OC2O)[C@@H]1C(C)CCC=C(C)C (stereo not given in full) | 73 | 71.2 | 43.1 | > 100 | 99.5 | 55.4 | 31.5 | 36.5 | – | – | 35.1 | – | – | – | – | – | – | – | – | – |
| O=C1NC2(O)c3ccccc3C(=O)C2(O)N1c1ccccc1 (stereo not given) | > 100 | > 100 | > 100 | > 100 | > 100 | > 100 | > 100 | – | – | – | > 100 | – | – | – | – | – | – | – | – | – |
| CC(=S)NNC(=O)c1ccncc1 | > 100 | > 100 | > 100 | > 100 | > 100 | > 100 | > 100 | > 100 | – | – | > 100 | – | – | – | – | – | – | – | – | – |
| CN(C)CCCn1c2c3ccccc3ccc2c2oc(=O)c3ccccc3c21 | 8.75 | > 95 | 93.9 | 12.3 | 29.2 | 13.1 | 10.6 | > 51.8 | – | – | 55.5 | – | – | – | – | – | – | – | – | – |
| Cc1cc2c(c(C#N)c1C)NC(=O)C(CC(=O)O)C2=O (stereo not given) | > 100 | > 100 | > 100 | > 100 | – | > 100 | – | > 100 | – | – | > 100 | – | – | – | – | – | – | – | – | – |
| COc1cc2c(cc1OC)[C@@H](C(O)c1ccccc1)NCC2 (stereo not given in full) | > 100 | > 100 | > 100 | – | > 100 | > 100 | > 100 | > 100 | – | – | > 100 | – | – | – | – | – | – | – | – | – |
| COC1=C(C(=O)OC(C)(C)C)[C@]2(C)C(C(=O)OC(C)(C)C)C(OC)=C(C(=O)OC(C)(C)C)[C@]2(C)C1C(=O)OC(C)(C)C (stereo not given in full) | > 100 | > 100 | > 100 | – | > 100 | > 100 | > 100 | > 100 | – | – | > 100 | – | – | – | – | – | – | – | – | – |
| CC(=O)OC[C@@H]1[C@H]2CC(=O)O[C@H]2C[C@H]1OC(C)=O | > 100 | > 100 | > 100 | > 100 | > 100 | – | > 100 | – | – | – | > 100 | – | – | – | – | – | – | – | – | – |
| COc1ccc(C=NC23CC4CC(CC(C4)C2)C3)cc1 | > 100 | > 100 | > 100 | > 100 | > 100 | > 100 | > 100 | > 100 | – | – | > 100 | – | – | – | – | – | – | – | – | – |
| COc1ccc(C(=O)/C=C/c2cc(C(=O)c3cc(OC)c(OC)c(OC)c3)ccc2OC)cc1 | > 100 | – | – | – | > 100 | – | – | > 100 | 4.61 | – | – | – | 3.05 | > 100 | – | 4.54 | – | – | 4.34 | – |
| O=C(Nc1nccs1)c1cc(C2=CC=CC([N+](=O)[O-])C=C2)nc(=S)[nH]1 (stereo not given) | > 100 | – | > 100 | > 100 | > 100 | > 100 | > 100 | > 100 | – | – | > 100 | – | – | – | – | – | – | – | – | – |
| COC1CC(OS(=O)(=O)c2ccc(C)cc2)C(OS(=O)(=O)c2ccc(C)cc2)C(COS(=O)(=O)c2ccc(C)cc2)O1 (stereo not given) | 6.06 | 1.12 | > 100 | 13.4 | 5.58 | 15.6 | 16 | 10.4 | – | – | 51.5 | – | – | – | – | – | – | – | – | – |
| C=CCN=C1N=C(CC(=O)OCC)CS1 | > 100 | > 100 | > 100 | > 100 | > 100 | > 100 | > 100 | > 100 | – | – | > 100 | – | – | – | – | – | – | – | – | – |
| CCOC(=O)NC(=O)c1cn(CCCOC(=O)CCCCCCCCC(=O)OCCCn2cc(C(=O)NC(=O)OCC)c(=O)[nH]c2=O)c(=O)[nH]c1=O | > 100 | 30.7 | 26.4 | 64.8 | 57.4 | – | – | – | – | – | – | – | – | – | – | – | – | – | – | – |
| c1ccc2[nH]c(-c3ccc(OCCCCCOc4ccc(-c5nc6ccccc6[nH]5)cc4)cc3)nc2c1 | 11.6 | 3.64 | 3.29 | 0.903 | > 28.4 | 26 | 6.62 | 55.9 | 4.06 | 2.69 | 6.75 | 1.76 | – | – | 0.394 | 5.97 | 8.89 | 2.29 | 21.3 | 1.28 |
| N#CC1(c2nc3ccccc3o2)C(=O)C(=O)N(c2ccc(Cl)c(Cl)c2)C(=O)C1=O | > 100 | > 100 | > 100 | > 100 | > 100 | > 100 | > 100 | > 100 | – | – | > 100 | – | – | – | – | – | – | – | – | – |
| CC[O-].CC[O-].O=Nc1ccc2cc([O-])ccc2c1.O=Nc1ccc2cc([O-])ccc2c1.[Ti+4] | 3.28 | 3.2 | 3.71 | 3.4 | 13.2 | 3.19 | – | 3.86 | 1.47 | 2.36 | 3.84 | 1.76 | – | – | 1.81 | 3.61 | 1.46 | – | 1.67 | 1.2 |
